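Method: 48-hour compound exposure of cells in 96-well plates, five concentrations, linear interpolation of endpoints. The concentration for 50% growth inhibition is given as GI50. TGI is the concentration that stops growth completely.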

The values that follow come from PubChem BioAssay (NCI).

Among the test systems are A549 NSCLC; HCC-2998 colon; NCI-H226 lung; NCI-H460 lung; OVCAR-5 ovarian; RPMI-8226 leukemia; SF-268 CNS; UACC-257 melanoma.
What all share (assay): inhibition of tumour cell growth, NCI panel, 48 h

With `Cn1c(=O)nc2n(-c3cccc(Br)c3)c3ccccc3nc-2c1=O`, the TGI in the experiment on A549 NSCLC worked out at 14.5 µM; in the experiment with HCC-2998 colon, 9.59 µM; in the experiment on NCI-H226 lung, 22.2 µM; with NCI-H460 lung it was 12.2 µM; in the experiment with OVCAR-5 ovarian, 26.1 µM; in the experiment with RPMI-8226 leukemia it was 37.7 µM. In addition, the TGI stood at 23.4 µM in the experiment on SF-268 CNS and 6.58 µM in the experiment on UACC-257 melanoma.
Consider `N#CC(C(=O)CCC(=O)C(C#N)c1ccccc1)c1ccccc1` (stereo not drawn), for which the TGI in the experiment with A549 NSCLC, with HCC-2998 colon, in the experiment with NCI-H226 lung, in the experiment with NCI-H460 lung, with OVCAR-5 ovarian and with RPMI-8226 leukemia was greater than 100 µM each time. Moreover, the TGI in the experiment with SF-268 CNS and with UACC-257 melanoma was greater than 100 µM throughout.
Consider `COC(=O)C(=O)OC1(C(C)=O)CC2(c3ccccc3)OC1(c1ccccc1)c1ccccc12` (stereo not drawn), for which the TGI with A549 NSCLC is 31.3 µM; in the experiment on HCC-2998 colon it was 31.4 µM; with NCI-H226 lung it was 31.7 µM; in the experiment with NCI-H460 lung, 36.2 µM; in the experiment with OVCAR-5 ovarian, 63 µM; in the experiment on RPMI-8226 leukemia it was greater than 100 µM. Moreover, the TGI with SF-268 CNS came out at 44 µM; with UACC-257 melanoma, 31.6 µM.
Regarding `CC1(c2cccc3ccccc23)OC(=O)c2ccccc21` (stereo not drawn), the TGI in the experiment on A549 NSCLC is 49.7 µM; with HCC-2998 colon it was 35.6 µM; in the experiment with NCI-H226 lung, 48.3 µM; in the experiment with NCI-H460 lung, 52.8 µM; in the experiment with OVCAR-5 ovarian, greater than 100 µM; in the experiment with RPMI-8226 leukemia it was 77.6 µM. In addition, the TGI with SF-268 CNS worked out at 93 µM; in the experiment on UACC-257 melanoma it was 54.5 µM.
For the molecule `CCCCCCCCCCCCCC(=O)CC(=O)c1c(O)cccc1O`, the TGI in the experiment with A549 NSCLC was greater than 100 µM; in the experiment with HCC-2998 colon, greater than 100 µM; with NCI-H226 lung it was 80.3 µM; in the experiment on NCI-H460 lung, 91.9 µM; in the experiment with OVCAR-5 ovarian, greater than 100 µM; with RPMI-8226 leukemia, 72.4 µM. In addition, the TGI with SF-268 CNS was greater than 100 µM; in the experiment on UACC-257 melanoma, 85.3 µM.
As to `CCCCCC/C=C1\CCC(CN2CCCC2)C1=O` (stereo not drawn), the TGI in the experiment with A549 NSCLC was 37 µM; in the experiment on HCC-2998 colon, 31.6 µM; in the experiment on NCI-H226 lung, 34.3 µM; in the experiment on NCI-H460 lung, greater than 62.1 µM; in the experiment on OVCAR-5 ovarian it was 32.3 µM; with RPMI-8226 leukemia it was 5.56 µM. Moreover, the TGI in the experiment with SF-268 CNS amounted to 38.5 µM; in the experiment with UACC-257 melanoma it was 32.7 µM.
With `CCOc1ccccc1NC(=O)CC1SC(=Nc2ccc([N+](=O)[O-])cc2)NC1=O` (stereo not drawn), the TGI came out at 38.9 µM in the experiment on A549 NSCLC; 36.7 µM in the experiment with HCC-2998 colon; 41.8 µM in the experiment with NCI-H226 lung; 51.1 µM with NCI-H460 lung; 78.7 µM with OVCAR-5 ovarian; 28.9 µM in the experiment on RPMI-8226 leukemia. The TGI with SF-268 CNS is greater than 100 µM; with UACC-257 melanoma, 46.1 µM.
For `O=C(CC1(O)C(=O)Nc2c(Cl)ccc(Cl)c21)c1ccc2ccccc2c1` (stereo not drawn), the TGI turned out to be 39.6 µM with A549 NSCLC; 35.6 µM in the experiment with HCC-2998 colon; 39.1 µM in the experiment with NCI-H226 lung; 25.5 µM in the experiment on NCI-H460 lung; 39.5 µM in the experiment with OVCAR-5 ovarian; 31 µM in the experiment on RPMI-8226 leukemia. For the same molecule, the TGI stood at 36.2 µM in the experiment with SF-268 CNS and 25.3 µM with UACC-257 melanoma.
In the case of `BrC1=CC=C2NC=CC3=CC=NC1C32` (stereo not drawn), the TGI is greater than 100 µM in the experiment with HCC-2998 colon; 45.9 µM in the experiment on NCI-H226 lung; 17.9 µM in the experiment on NCI-H460 lung; greater than 75.5 µM in the experiment on OVCAR-5 ovarian; 37.8 µM in the experiment with RPMI-8226 leukemia; greater than 92.5 µM in the experiment on SF-268 CNS. The molecule further showed a TGI in the experiment on UACC-257 melanoma of 98.8 µM.
Consider `O=[N+]([O-])c1nccn1CC(O)CN1CC1` (stereo not drawn), for which the TGI in the experiment on A549 NSCLC, with NCI-H226 lung, in the experiment with NCI-H460 lung, in the experiment on OVCAR-5 ovarian, in the experiment on RPMI-8226 leukemia and in the experiment on SF-268 CNS was greater than 100 µM throughout. Besides, in the experiment with UACC-257 melanoma, the TGI was greater than 100 µM.
On to `CC(=O)[CH-]C(=O)c1ccccc1.CC(=O)[CH-]C(=O)c1ccccc1.CC(C)CCCC(C)[C@H]1CCC2[C@@H]3CC=C4C[C@@H]([O-])CC[C@]4(C)C3CC[C@@]21C.CC[O-].[Ti+4]` (stereo partly drawn), for which the GI50 was greater than 100 µM in the experiment with A549 NSCLC; 62.6 µM with HCC-2998 colon; greater than 100 µM in the experiment on NCI-H226 lung; 44.8 µM with NCI-H460 lung; greater than 100 µM in the experiment on OVCAR-5 ovarian; 18.5 µM in the experiment on RPMI-8226 leukemia. Also, the GI50 was 50.2 µM in the experiment on SF-268 CNS and 60.3 µM in the experiment with UACC-257 melanoma. For the same molecule, the TGI is greater than 100 µM with A549 NSCLC; greater than 100 µM with HCC-2998 colon; greater than 100 µM in the experiment with NCI-H226 lung; greater than 100 µM with NCI-H460 lung; greater than 100 µM in the experiment on OVCAR-5 ovarian; 52.2 µM with RPMI-8226 leukemia. The TGI in the experiment with SF-268 CNS and in the experiment on UACC-257 melanoma was greater than 100 µM throughout.
In the case of `Oc1cc(O)c2c(-c3c(O)c(-c4ccc(O)c(O)c4)[o+]c4cc(O)cc(O)c34)c(O)c(-c3ccc(O)c(O)c3)[o+]c2c1`, the TGI is greater than 100 µM with A549 NSCLC; greater than 100 µM in the experiment with HCC-2998 colon; 64 µM in the experiment on NCI-H226 lung; 90.6 µM with NCI-H460 lung; greater than 100 µM with OVCAR-5 ovarian; greater than 100 µM with RPMI-8226 leukemia. For the same molecule, the TGI in the experiment on SF-268 CNS and with UACC-257 melanoma was greater than 100 µM throughout.
As for `O=C1NC(=O)C2C(=O)NC(=O)C1C2(c1ccccc1)c1cc[nH]c1` (stereo not drawn), the TGI in the experiment with A549 NSCLC, in the experiment on HCC-2998 colon, in the experiment on NCI-H226 lung, in the experiment with NCI-H460 lung, in the experiment with OVCAR-5 ovarian and in the experiment on RPMI-8226 leukemia was greater than 100 µM each time. Besides, the TGI in the experiment with SF-268 CNS and in the experiment on UACC-257 melanoma was greater than 100 µM in each case.
`CN(C)c1ccc([O][Bi]([Cl])[Cl])cc1`: the GI50 in the experiment with A549 NSCLC was greater than 100 µM; in the experiment on HCC-2998 colon it was 42.5 µM; with NCI-H226 lung, greater than 100 µM; in the experiment with NCI-H460 lung it was greater than 100 µM; in the experiment with OVCAR-5 ovarian, greater than 100 µM; with UACC-257 melanoma, 37.2 µM. The TGI in the experiment with A549 NSCLC, in the experiment with HCC-2998 colon, with NCI-H226 lung, in the experiment with NCI-H460 lung, in the experiment on OVCAR-5 ovarian and with UACC-257 melanoma was greater than 100 µM throughout.
With `CC(=O)[CH-]C(=O)c1ccccc1.CC(=O)[CH-]C(=O)c1ccccc1.CC1(C)C2CCC1(C)C([O-])C2.CC1(C)C2CCC1(C)C([O-])C2.[Ti+4]`, the GI50 is 23.9 µM in the experiment on A549 NSCLC; 38.5 µM in the experiment with HCC-2998 colon; 23.2 µM in the experiment with NCI-H226 lung; 47.7 µM with NCI-H460 lung; greater than 100 µM in the experiment with OVCAR-5 ovarian; 25 µM in the experiment with RPMI-8226 leukemia. The GI50 is 34.8 µM in the experiment on SF-268 CNS and 88.7 µM in the experiment on UACC-257 melanoma. In addition, the TGI is greater than 100 µM in the experiment with A549 NSCLC; greater than 100 µM with HCC-2998 colon; 90.7 µM in the experiment on NCI-H226 lung; greater than 100 µM in the experiment with NCI-H460 lung; greater than 100 µM with OVCAR-5 ovarian; greater than 100 µM in the experiment on RPMI-8226 leukemia. The TGI in the experiment on SF-268 CNS and in the experiment with UACC-257 melanoma was greater than 100 µM each time.
`O=c1cc2ccccc2nn1Cc1cccc(Cl)c1`: the TGI in the experiment on A549 NSCLC, in the experiment with HCC-2998 colon, in the experiment with NCI-H226 lung, in the experiment with NCI-H460 lung, in the experiment with OVCAR-5 ovarian and with RPMI-8226 leukemia was greater than 100 µM throughout. Besides, the TGI in the experiment on SF-268 CNS and in the experiment with UACC-257 melanoma was greater than 100 µM in each case.
Take `CCC1(c2c(F)c(F)c(N)c(F)c2F)CCC(=O)NC1=O` (stereo not drawn): the TGI in the experiment with A549 NSCLC, with HCC-2998 colon, in the experiment on NCI-H226 lung, with NCI-H460 lung, with OVCAR-5 ovarian and with RPMI-8226 leukemia was greater than 100 µM each time. The TGI with SF-268 CNS and in the experiment with UACC-257 melanoma was greater than 100 µM each time.
On to `N#CC(C(=O)/C(=N/N)C(C#N)c1ccccc1)c1ccccc1` (stereo not drawn), for which the TGI with A549 NSCLC, in the experiment with HCC-2998 colon, in the experiment on NCI-H226 lung, with NCI-H460 lung, with OVCAR-5 ovarian and with RPMI-8226 leukemia was greater than 100 µM each time. Besides, the TGI in the experiment with SF-268 CNS and in the experiment on UACC-257 melanoma was greater than 100 µM in each case.
With `Cc1ccccc1C(=O)c1ccccc1O`, the TGI in the experiment on A549 NSCLC, with HCC-2998 colon, in the experiment on NCI-H226 lung, with NCI-H460 lung, in the experiment on OVCAR-5 ovarian and with SF-268 CNS was greater than 100 µM in each case. The molecule further displayed a TGI with UACC-257 melanoma greater than 100 µM.
For the molecule `N/C(=C\c1ccc(OCc2ccccc2)c(OCc2ccccc2)c1[N+](=O)[O-])C(=O)O`, the TGI in the experiment with A549 NSCLC, in the experiment with HCC-2998 colon, in the experiment with NCI-H226 lung, in the experiment with OVCAR-5 ovarian, in the experiment with RPMI-8226 leukemia and in the experiment on SF-268 CNS was greater than 100 µM in each case. This molecule also displayed a TGI with UACC-257 melanoma greater than 100 µM.
For the molecule `CC(=O)[CH-]C(=O)c1ccccc1.CC(=O)[CH-]C(=O)c1ccccc1.[Eu+3].[OH-].[OH3+]`, the GI50 in the experiment on A549 NSCLC, in the experiment with HCC-2998 colon, in the experiment on NCI-H460 lung, in the experiment with RPMI-8226 leukemia and in the experiment on UACC-257 melanoma was greater than 100 µM each time. The TGI in the experiment with A549 NSCLC, in the experiment on HCC-2998 colon, with NCI-H460 lung, with RPMI-8226 leukemia and in the experiment on UACC-257 melanoma was greater than 100 µM in each case.
`Oc1ccccc1C=NCc1ccco1`: the TGI with A549 NSCLC, in the experiment with NCI-H226 lung, with NCI-H460 lung, in the experiment on OVCAR-5 ovarian, with RPMI-8226 leukemia and in the experiment on SF-268 CNS was greater than 100 µM in each case. The same molecule yielded a TGI in the experiment on UACC-257 melanoma greater than 100 µM.
